Like-named read-outs stand apart in the source and are kept apart here.

The source of these data is patent US20250136606A1, “MODULATORS OF TRPML, THEIR COMPOSITIONS AND METHODS OF USE” (Caraway Therapeutics, Inc., priority 2021, published 2025).

What all share (format): cell-based
In one assay the target is T1, TRPML2 (Homo sapiens, UniProt Q8IZK6).
T1 construct: expressed in transfected cells
T1 sequence (Q8IZK6 1-566): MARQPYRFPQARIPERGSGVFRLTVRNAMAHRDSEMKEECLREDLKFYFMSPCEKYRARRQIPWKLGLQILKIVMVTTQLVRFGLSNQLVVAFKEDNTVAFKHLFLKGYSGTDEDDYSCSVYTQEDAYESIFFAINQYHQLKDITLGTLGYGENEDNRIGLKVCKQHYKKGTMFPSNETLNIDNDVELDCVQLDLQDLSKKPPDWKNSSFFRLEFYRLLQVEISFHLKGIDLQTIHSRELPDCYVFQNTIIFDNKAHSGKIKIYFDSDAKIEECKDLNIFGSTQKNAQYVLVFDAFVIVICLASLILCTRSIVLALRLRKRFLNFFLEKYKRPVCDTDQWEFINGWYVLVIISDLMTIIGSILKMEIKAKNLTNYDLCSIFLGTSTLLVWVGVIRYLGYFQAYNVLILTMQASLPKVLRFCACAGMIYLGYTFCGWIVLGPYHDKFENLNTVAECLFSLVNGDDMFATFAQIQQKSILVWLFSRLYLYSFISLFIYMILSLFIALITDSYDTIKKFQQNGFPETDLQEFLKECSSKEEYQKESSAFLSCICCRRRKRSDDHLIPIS
The assay is described as follows: Fluorescent TRPML2 assay (performed as for TRPML1, substituting the TRPML2 subtype). The method, boiled down: (§1)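 HEK-293 Trex cells with doxycycline-induced (0.5 ug/mL) surface-directed human TRPML subtype, loaded with 1 μM Fluo4-AM, resuspended in Ringer's with 10 mM calcium. Compounds at 20 μM to 6 nM final in half-log steps, triplicate; fluorescence ex 480/em 540; EC50 by non-linear regression versus plate controls.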

In a further assay the target is TRPML1 (Homo sapiens, UniProt Q9GZU1). The assay can be described thus: Fluorescent TRPML1 assay (Fluo4-AM calcium fluorescence in doxycycline-induced HEK-293 Trex cells). The procedure, abridged:
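EC50 values come from non-linear regression of percent activity, normalized to on-plate positive and negative controls, with fluorescence read at 480 nm excitation and 540 nm emission. Fluo4-AM-loaded (1 µM) doxycycline-induced HEK-293 Trex cells expressing mutated human TRPML1 were exposed in 10 mM calcium Ringer's to 6 nM–20 µM compound, in triplicate.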

For the next assay, the target named is T2, TRPML3 (Homo sapiens, UniProt Q8TDD5).
T2 construct: expressed in transfected cells
T2 sequence (Q8TDD5 1-553): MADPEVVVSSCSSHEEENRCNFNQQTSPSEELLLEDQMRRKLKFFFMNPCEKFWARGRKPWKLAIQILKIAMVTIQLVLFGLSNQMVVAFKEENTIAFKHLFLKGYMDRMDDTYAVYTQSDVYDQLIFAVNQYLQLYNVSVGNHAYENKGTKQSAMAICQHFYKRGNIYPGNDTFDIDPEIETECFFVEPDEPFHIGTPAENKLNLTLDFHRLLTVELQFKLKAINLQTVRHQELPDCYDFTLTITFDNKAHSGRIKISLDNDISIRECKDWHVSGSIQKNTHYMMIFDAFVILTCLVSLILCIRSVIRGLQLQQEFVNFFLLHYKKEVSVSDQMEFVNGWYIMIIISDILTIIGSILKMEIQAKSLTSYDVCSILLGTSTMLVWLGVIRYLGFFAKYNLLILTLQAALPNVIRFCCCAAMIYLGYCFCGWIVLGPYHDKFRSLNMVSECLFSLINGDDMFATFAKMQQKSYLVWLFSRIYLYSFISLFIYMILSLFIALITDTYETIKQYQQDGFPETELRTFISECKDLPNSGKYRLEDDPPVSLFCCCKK
The assay is described as follows: Fluorescent TRPML3 assay (performed as for TRPML1, substituting the TRPML3 subtype). The procedure, abridged: as §1

Chain of TRPML1 (Q9GZU1 whole entry L15A/L16A/L577A/L578A, form open): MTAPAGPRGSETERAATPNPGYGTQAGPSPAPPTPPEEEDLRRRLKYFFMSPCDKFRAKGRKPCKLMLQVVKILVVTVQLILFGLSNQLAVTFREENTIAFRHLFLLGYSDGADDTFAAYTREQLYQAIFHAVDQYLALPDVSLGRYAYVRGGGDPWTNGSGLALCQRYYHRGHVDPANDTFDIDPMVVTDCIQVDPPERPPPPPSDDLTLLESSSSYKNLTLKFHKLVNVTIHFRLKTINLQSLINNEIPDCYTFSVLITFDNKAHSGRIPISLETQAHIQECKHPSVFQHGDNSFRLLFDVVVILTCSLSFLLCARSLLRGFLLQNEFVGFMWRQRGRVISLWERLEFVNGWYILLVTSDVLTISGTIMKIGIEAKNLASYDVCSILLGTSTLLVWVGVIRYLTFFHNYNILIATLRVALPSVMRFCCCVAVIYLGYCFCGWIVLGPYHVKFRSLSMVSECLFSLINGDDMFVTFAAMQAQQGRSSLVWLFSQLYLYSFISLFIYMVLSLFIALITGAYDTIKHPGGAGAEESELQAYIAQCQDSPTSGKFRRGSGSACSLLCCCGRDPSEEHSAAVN

Consider `C[C@@H]1CN(c2ncnc3c2c(-c2ccccc2F)cn3-c2cc(C#N)ccn2)CCN1C(=O)OCC(F)(F)F` [Compound 378, 2,2,2-trifluoroethyl (R)-4-(7-(4-cyanopyridin-2-yl)-5-(2-fluorophenyl)-7H-pyrrolo[2,3-d]pyrimidin-4-yl)-2-methylpiperazine-1-carboxylate], for which the EC50 on TRPML2 (fluorescent calcium assay), at TRPML1 (fluorescent calcium assay) and on TRPML3 (fluorescent calcium assay) was less than 100 nM each time.
As for `COC(=O)c1nccnc1-c1cn(-c2cccc(Cl)c2)c2ncnc(N3CCN(C(=O)OC(C)(C)C)C[C@@H]3C)c12` [Compound 275, methyl (S)-3-(4-(4-(tert-butoxycarbonyl)-2-methylpiperazin-1-yl)-7-(3-chlorophenyl)-7H-pyrrolo[2,3-d]pyrimidin-5-yl)pyrazine-2-carboxylate], the results for the EC50 at TRPML2 (fluorescent calcium assay), at TRPML1 (fluorescent calcium assay) and on TRPML3 (fluorescent calcium assay) were greater than 2000 nM, greater than 2000 nM and 500 to 2000 nM, respectively.
In the case of `CC(C)(C)OC(=O)N1CCN(c2ncnc3c2c(C2CC2)cn3-c2cc(Cl)cc(Cl)c2)CC1` [Compound 122, tert-butyl 4-(5-cyclopropyl-7-(3,5-dichlorophenyl)-7H-pyrrolo[2,3-d]pyrimidin-4-yl)piperazine-1-carboxylate], the EC50 – broadly, the concentration giving half of the maximal effect – at TRPML2 (fluorescent calcium assay) was greater than 2000 nM; on TRPML1 (fluorescent calcium assay), less than 100 nM; on TRPML3 (fluorescent calcium assay) it was less than 100 nM.
For the molecule `Cc1cn(-c2cc(F)cc(F)c2)c2ncnc(N3CCN(C(=O)OC(C)(C)C)C[C@@H]3C)c12` [Compound 687, tert-butyl (S)-4-(7-(3,5-difluorophenyl)-5-methyl-7H-pyrrolo[2,3-d]pyrimidin-4-yl)-3-methylpiperazine-1-carboxylate], the EC50 on TRPML2 was 100 to 500 nM; at TRPML1, less than 100 nM; on TRPML3, less than 100 nM.
Consider `C[C@@H]1CN(c2ncnc3c2c(-c2cnccn2)cn3-c2cc(F)cc(F)c2)CCN1C(=O)OC(C)(C)C` [Compound 233, tert-butyl (R)-4-(7-(3,5-difluorophenyl)-5-(pyrazin-2-yl)-7H-pyrrolo[2,3-d]pyrimidin-4-yl)-2-methylpiperazine-1-carboxylate], for which the concentration for a half-maximal effect (EC50) on TRPML2 (fluorescent calcium assay) lay in the range of 500 to 2000 nM; at TRPML1 (fluorescent calcium assay), 500 to 2000 nM; at TRPML3 (fluorescent calcium assay), 100 to 500 nM.
For the molecule `C[C@@H]1CN(c2ncnc3c2c(C2CCC2)cn3-c2cccc(F)c2)[C@@H](C)CN1C(=O)OC(C)(C)C` [Compound 646, tert-butyl (2R,5S)-4-(5-cyclobutyl-7-(3-fluorophenyl)-7H-pyrrolo[2,3-d]pyrimidin-4-yl)-2,5-dimethylpiperazine-1-carboxylate], the EC50 at TRPML2 was greater than 2000 nM; on TRPML1, 500 to 2000 nM; on TRPML3, 100 to 500 nM.
Regarding `C[C@H]1CN(C(=O)OC(C)(C)C)CCN1c1ncnc2c1c(C1CCC1)cn2-c1cc(C#N)ccn1` [Compound 333], the EC50 at TRPML2 (fluorescent calcium assay), at TRPML1 (fluorescent calcium assay) and on TRPML3 (fluorescent calcium assay) was less than 100 nM each time.
`COc1cccc(-n2cc(C3CC3)c3c(N4CCN(C(=O)OC(C)(C)C(F)(F)F)C[C@@H]4C)ncnc32)c1` [Compound 263, 1,1,1-trifluoro-2-methylpropan-2-yl (S)-4-(5-cyclopropyl-7-(3-methoxyphenyl)-7H-pyrrolo[2,3-d]pyrimidin-4-yl)-3-methylpiperazine-1-carboxylate]: the EC50 at TRPML2 (fluorescent calcium assay) was in the range of 500 to 2000 nM; on TRPML1 (fluorescent calcium assay) it was 100 to 500 nM; at TRPML3 (fluorescent calcium assay), 100 to 500 nM.
In the case of `Cc1nccnc1-c1cn(-c2cc(C#N)ccn2)c2ncnc(N3C[C@@H](C)N(C(=O)OC(C)(C)C)C[C@@H]3C)c12` [Compound 458, tert-butyl (2R,5S)-4-(7-(4-cyanopyridin-2-yl)-5-(3-methylpyrazin-2-yl)-7H-pyrrolo[2,3-d]pyrimidin-4-yl)-2,5-dimethylpiperazine-1-carboxylate], the EC50 at TRPML2 (fluorescent calcium assay) is 100 to 500 nM; on TRPML1 (fluorescent calcium assay), less than 100 nM; at TRPML3 (fluorescent calcium assay), 100 to 500 nM.
